# Reference: publication PMC7522027 (Disease Models & Mechanisms, 2020)
# Values joined by “and” are separate entries in the source; they are usually repeats but may differ in a detail not shown here. Equal values may be shown once.
# Key:
# zebrafish embryos [1] = assay: zebrafish embryo assay (morphological developmental defects at 48 hpf); type: in vivo, zebrafish (Danio rerio); conditions: for developmental defects in zebrafish embryos: broad concentration range; for effect on zebrafish embryo development: 20 µM (maximum tested concentration)
# Description: Zebrafish eggs obtained from family crosses of Tuebingen long fin zebrafish lines were used to assess the biological activity of all samples. The eggs were washed with fresh E3 medium and subsequently divided over 24-well plates, with ten embryos per well in 1000 µl E3 medium. Samples were added to the wells at various times as mentioned in the figures and legends. At 48 hpf, the zebrafish embryos were inspected for morphological developmental defects. Embryos displaying morphological defects were imaged using a Leica MZFLIII microscope equipped with a Leica DFC320 camera or Leica M165 FC microscope equipped with a Leica DMC5400 camera.
# zebrafish embryos [2] = assay: in situ hybridization with krox20/myod probes in treated zebrafish embryos; type: in vivo, zebrafish (Danio rerio); conditions: 750 nM from 6 hpf, fixed at 12 hpf
# Description: Embryos were treated from approximately 6 hpf until 12 hpf when they were fixed in 4% paraformaldehyde overnight. In situ hybridization was performed using krox20 and myod anti-sense RNA probes as described elsewhere ([Thisse and Thisse, 2008]).
# caALK3 = target: T1, caALK3 (Homo sapiens, UniProt P36894, Q233D); assay: caALK3-induced SMAD1/5 phosphorylation in HEK 293T cells; type: cell-based; conditions: cercosporamide 1-10 µM, LDN193189 200 nM
# T1 construct: expressed in transfected cells; host or cells: HEK 293T
# T1 sequence (P36894 24-532 Q233D): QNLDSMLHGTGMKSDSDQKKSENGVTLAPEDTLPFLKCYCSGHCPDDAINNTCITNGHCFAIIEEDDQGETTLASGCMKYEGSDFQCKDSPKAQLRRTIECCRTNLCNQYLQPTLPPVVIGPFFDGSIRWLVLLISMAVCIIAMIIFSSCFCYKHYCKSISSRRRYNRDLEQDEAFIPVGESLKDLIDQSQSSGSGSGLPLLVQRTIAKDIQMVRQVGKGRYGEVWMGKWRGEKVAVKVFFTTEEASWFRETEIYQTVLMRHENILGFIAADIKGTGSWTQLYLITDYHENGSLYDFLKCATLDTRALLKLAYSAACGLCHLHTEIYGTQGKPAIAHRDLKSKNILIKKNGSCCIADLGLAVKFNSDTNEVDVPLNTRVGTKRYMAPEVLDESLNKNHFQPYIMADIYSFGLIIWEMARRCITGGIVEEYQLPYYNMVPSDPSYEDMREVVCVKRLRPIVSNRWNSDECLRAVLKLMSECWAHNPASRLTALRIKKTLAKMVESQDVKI
# Description: (§1) HepG2 or HEK 293T cells were lysed in Laemmli sample buffer. Proteins were separated by sodium dodecyl sulfate polyacrylamide gel electrophoresis (SDS-PAGE) and transferred onto […] polyvinylidene difluoride (PVDF) membrane (IPVH00010, Merck Millipore). Membranes were blocked using 5% non-fat dry milk in Tris-buffered saline with 0.1% Tween 20 (655204, Merck Millipore) and probed with the respective primary and secondary antibodies. The signal was detected using Clarity™ Western ECL Substrate (1705060, Bio-Rad) and ChemiDoc Imaging System (17001402, Bio-Rad). The antibodies used for immunoblotting were raised against the following proteins: phospho-SMAD1/5/8 ([Persson et al., 1998]; 1:1000), SMAD1 (Cell Signaling Technology, #6944; 1:1000), GAPDH (Merck Millipore, #G8795; 1:5000) and hemagglutinin (HA; Roche, #12CA5; 1:1000).
# (§2) For experiments with the caALK type I receptor constructs, HEK 293T cells were seeded in 24-well plates at ∼90% confluency and transfected with the DNA expression constructs in the presence of PEI. Thirty hours after transfection, the cells were added to serum-starved medium and treated with compounds for 16 h (overnight). Subsequently, the cells were washed with PBS and lysed in Laemmli sample buffer. […]
# caALK1 = target: T2, caALK1 (Homo sapiens, UniProt P37023, Q201D); assay: caALK1-induced SMAD1/5 phosphorylation in HEK 293T cells; type: cell-based; conditions: cercosporamide 1-10 µM, LDN193189 200 nM
# T2 construct: expressed in transfected cells; host or cells: HEK 293T
# T2 sequence (P37023 22-503 Q201D): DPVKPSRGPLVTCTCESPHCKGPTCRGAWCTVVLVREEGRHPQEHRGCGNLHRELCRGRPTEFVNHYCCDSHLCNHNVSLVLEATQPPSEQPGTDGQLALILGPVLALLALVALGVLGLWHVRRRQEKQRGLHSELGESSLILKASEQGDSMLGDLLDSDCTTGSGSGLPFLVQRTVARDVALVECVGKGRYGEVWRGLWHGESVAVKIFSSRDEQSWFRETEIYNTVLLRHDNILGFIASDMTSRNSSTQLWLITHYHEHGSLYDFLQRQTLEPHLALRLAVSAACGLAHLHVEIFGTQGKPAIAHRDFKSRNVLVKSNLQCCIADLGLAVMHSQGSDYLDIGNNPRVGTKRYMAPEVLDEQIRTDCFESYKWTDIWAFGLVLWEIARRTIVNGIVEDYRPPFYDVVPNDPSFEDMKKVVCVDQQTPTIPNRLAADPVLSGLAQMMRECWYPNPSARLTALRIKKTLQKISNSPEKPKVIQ
# Description: as §1, §2
# caALK2 = target: T3, caALK2 (Homo sapiens, UniProt Q04771, Q207D); assay: caALK2-induced SMAD1/5 phosphorylation in HEK 293T cells; type: cell-based; conditions: cercosporamide 1-10 µM, LDN193189 200 nM
# T3 construct: expressed in transfected cells; host or cells: HEK 293T
# T3 sequence (Q04771 21-509 Q207D): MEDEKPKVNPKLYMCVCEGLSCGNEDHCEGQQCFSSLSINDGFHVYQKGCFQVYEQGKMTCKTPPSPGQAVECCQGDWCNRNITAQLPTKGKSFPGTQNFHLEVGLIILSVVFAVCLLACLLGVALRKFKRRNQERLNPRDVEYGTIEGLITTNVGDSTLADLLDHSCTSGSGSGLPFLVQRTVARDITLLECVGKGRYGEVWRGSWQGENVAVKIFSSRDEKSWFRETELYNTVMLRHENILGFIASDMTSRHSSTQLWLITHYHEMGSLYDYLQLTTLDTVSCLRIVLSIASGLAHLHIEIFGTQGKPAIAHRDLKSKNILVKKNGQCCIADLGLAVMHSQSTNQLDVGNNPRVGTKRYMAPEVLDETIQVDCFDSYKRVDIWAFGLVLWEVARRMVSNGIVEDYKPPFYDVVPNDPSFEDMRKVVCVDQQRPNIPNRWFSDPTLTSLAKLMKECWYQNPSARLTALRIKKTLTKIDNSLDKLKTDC
# Description: as §1, §2
# [3] = test system: BMP2-induced SMAD1/5-dependent BRE-luc transcriptional reporter; assay: BMP2-induced BRE-luc transcriptional reporter assay in HepG2 cells; type: cell-based, human; conditions: HepG2, BMP2 50 ng/ml; cercosporamide 100 nM to 10 µM, LDN-193189 200 nM
# Description: For luciferase transcriptional reporter assays, HepG2 cells were seeded in 9-cm plates at ∼60% confluency and transfected with polyethyleneimine (PEI). Twenty-four hours later, the transfected cells were seeded in 24-well plates at ∼60% confluency. Another 24 h later, the cells were serum starved for 6 h. Subsequently the cells were treated with compound or DMSO for 30 min. Thereafter, the cells were stimulated with BMP2 in the presence of compounds (or DMSO) for 16 h (overnight). Subsequently, the cells were washed with PBS and lysed. Luciferase activity was measured using the luciferase reporter assay system from Promega (Leiden, The Netherlands) by a Perkin Elmer luminometer Victor^3 1420. Each DNA transfection mixture was equalized with empty vector when necessary and every experiment was performed in triplicate. β-galactosidase expression construct was co-transfected and β-galactosidase was measured to normalize for differences in transfection efficiency. The BRE-luc reporter construct has been reported previously ([Korchynskyi and ten Dijke, 2002]).
# caALK6 = assay: caALK6-induced SMAD1/5 phosphorylation in HEK 293T cells; type: cell-based, human; conditions: cercosporamide 1-10 µM, LDN193189 200 nM
# Description: as §1, §2
# [4] = test system: BMP2-induced SMAD1/5 phosphorylation; assay: BMP2-induced SMAD1/5 phosphorylation in HepG2 cells (immunoblot); type: cell-based, human; conditions: HepG2, BMP2 50 ng/ml, maximum tested concentration of 20 µM
# Description: For BMP stimulation, the HepG2 cells (∼50% confluency) were starved on serum-free medium for 6 h. Subsequently, prior to the addition of BMP ligands, the cells were treated with compound for 30 min. Next, the cells were stimulated with BMP2 (50 ng/ml) or BMP6 (50 ng/ml) for 45 min. The cells were then washed with PBS and lysed in Laemmli sample buffer for western blot analysis.
# as §1
smiles,measurement,setting,value
Cc1cccc(-c2nn(C(=S)Nc3ccccc3)cc2-c2ccnc3ccccc23)n1 [A83-01],developmental defects in zebrafish embryos,zebrafish embryos [1],severely curved tail and fused eyes
Cc1cccc(-c2[nH]ncc2-c2ccc3ncccc3n2)n1 [ALK5 kinase inhibitor II],developmental defects in zebrafish embryos,zebrafish embryos [1],severely curved tail and fused eyes
CC(C)Oc1ccc(-c2cnc3c(-c4ccnc5ccccc45)cnn3c2)cc1 [DMH-1],lethality,"zebrafish embryos [1]; 250 nM, treatment from 2 hpf onwards",lethal
same,embryos in which treatment is lethal,"zebrafish embryos [1]; 250 nM, treatment from 4 hpf",50%
same,phenotype,zebrafish embryos [1]; 750 nM,loss of the ventral fin
same,phenotype at 48 hpf,"zebrafish embryos [1]; DMH-1 treatment at 8 hpf (250 nM, Fig. S3)",mild defects
same,krox20 expression pattern,zebrafish embryos [2],induced lateral expression of krox20
same,fraction of embryos showing the pattern,zebrafish embryos [2]; one fraction per depicted pattern,9/13 and 4/13
"c1ccc2c(-c3cnn4cc(-c5ccc(N6CCNCC6)cc5)cnc34)ccnc2c1 [LDN-193189, reference compound]","developmental defects, single treatment","zebrafish embryos [1]; 5 µM, from 7 hpf onwards",did not induce detectable developmental defects
same,effect on caALK3-induced SMAD1/5 phosphorylation,caALK3,strongly reduced
same,effect on caALK1-induced SMAD1/5 phosphorylation,caALK1,strongly reduced
same,effect on caALK2-induced SMAD1/5 phosphorylation,caALK2,strongly reduced
same,effect on BMP2-induced BRE-luc activity,[3],potent antagonizing effect
same,effect on caALK6-induced SMAD1/5 phosphorylation,caALK6,strongly reduced
Cc1cc(Nc2cc(N)ncn2)c(=O)n2c1C(=O)NC21CCCCC1 [eFT508],effect on zebrafish embryo development,zebrafish embryos [1],no effect
same,effect on zebrafish embryo development,zebrafish embryos [1]; listed as eFT 508,did not induce developmental
same,effect on SMAD1/5 phosphorylation,[4],no effect
same,effect on SMAD1/5 phosphorylation,[4]; listed as eFT 508,did not affect
